Patent publication US20240398853A1, “MULTIVALENT POLYCATION INHIBITION OF POLYANIONS IN BLOOD” (The Regents of the University of Michigan, priority 2021, published 2024)

Tests used:
[1] = free ligand, value marked with a reference superscript; cited from earlier work
[2] = Isothermal titration calorimetry, binding to polyP; conditions: for Kd: pH 7.4, 25° C.
Method: The interaction of MPI and polyP was carried out at 25° C. using a MicroCal iTC200 calorimeter (MicroCal, Northampton, USA). Samples were prepared by making stock solutions of at least 100× the desired concentration at high volume and filtered using 0.2 µm filters (Millex, Merck Millipore Ltd). The pH of each solution was then measured to ensure that they were between 7.35 and 7.40. Prior to titration, stock solutions were diluted with the same filtered buffer and degassed. Titrations consisted of 25 consecutive injections of 1.5 μL volume and 5 sec duration each, with a 3 min interval between injections with only the first injection between 0.2 μL volume, not used as part of the fit. Heat of dilution was measured by injecting MPI solution into buffer alone and was subtracted from the experimental curves prior to data analysis. The resulting data were fit into a single set of identical sites model using the MicroCal ORIGIN software supplied with the instrument.

[3] = 31P NMR titration of polyP with MPI or CBG; format: binding; conditions: HEPES buffer, 150 mM NaCl, 298 K
Method: NMR spectra for MPI and polyP binding interaction studies were acquired on a Bruker 500 MHz instrument (Bruker Biospin, Milton, ON), operating at a ^1H frequency of 499.4 MHz. ^31P NMR spectra were collected at 298 K. The NMR sample was prepared to yield 0.5 mM of polyphosphate in HEPES buffer with 150 mM NaCl and 10% D2O (by volume) for a total sample volume of 600 μL. All polyphosphate concentrations are provided in terms of the concentration of phosphate monomer. For the binding study, polyphosphate was first prepared with a known concentration of internal standard of trimethylphosphate. MPI was titrated in, and the total volume was increased by 1.5 μL of the 600 μL total per addition.
While ITC experiments indicate the behavior of the amine functionalities on the CBGs during the MPI-polyP binding event, the effect of the MPI on the polyP phosphate backbone have previously been unknown. To determine the interaction between the MPI and polyP backbone, and how the interaction effects the electronic environment of the phosphorus nuclei, ^31P NMR titration experiments were performed. […] While it is not possible to quantify the number of bound phosphate units with MPI or CBG, it is possible to visualize the change in electronic environment of the phosphorus nuclei and extrapolate the binding behavior between MPI and polyP.

[4] = test system: Unfractionated heparin (UFH); experiment: Heparin reversal activity by aPTT in heparinized plasma; format: biochemical, human; conditions: UFH 4 U/mL, dose range 0-250 μg/mL
Method: (§1) Stock MPI, UHRA or protamine sulfate solutions were prepared in 20 mM HEPES buffer (pH 7.4 and 150 mM NaCl). Unfractionated heparin (Fresenius Kabi, Canada) or tinzaparin (LEO Pharma, Canada), 4 U/mL and 1 U/mL final concentrations, respectively, were incubated with sodium citrate anticoagulated pooled normal plasma (Affinity Biologicals, Canada) to prepare heparinized plasma, and were used to study the neutralization activity by various MPI and UHRA constructs. The neutralization activity of MPI, UHRA and protamine sulfate on the coagulation cascade was examined by mixing 20 μL of MPI or UHRA or protamine solution with 180 μL of heparin derivative incubated plasma ( 1/10 v/v). The final concentration of MPI, UHRA and protamine in plasma ranged from 0.025 mg/mL to 0.25 mg/mL. 200 μL of aPTT reagent (Dade®Actin®FS Activated PTT, Siemens/Dade-Behring) was then added to the neutralization reagent-plasma sample and 100 μL of this resulting mixture was transferred to cuvette-strips and incubated at 37° C. for 3 minutes. The clotting time was measured on a STart® 4 coagulometer (Diagnostica Stago, France) and began when 50 μL of 25 mM CaCl2) was added into each cuvette. Saline added to plasma with and without heparin-derivatives was used as a control for the experiments. The percentage of neutralization was calculated from the difference in the clotting times observed for MPI/UHRA/protamine versus control saline and heparinized plasma. All experiments were performed with pooled plasma of 20 donors in triplicates and the average values (mean±SD) are reported.

tinzaparin (LMWH) = experiment: as above; format: biochemical, human; conditions: tinzaparin 1 U/mL
Method: as §1

human plasma clotting = experiment: Plasma clot formation by turbidity analysis in a TF-triggered system (no polyP); format: biochemical
Method: Microplate turbidimetric clotting assays were performed with platelet-poor plasma (PPP) obtained from three donors. MPI solutions were prepared in 20 mM HEPES (pH 7.4, 150 mM NaCl) buffer. Clotting was initiated in 90 μL of 30% diluted PPP spiked with MPI (dilution 1:10) by adding 5 μL of recombinant tissue factor (TF; Innovin (1:10,000; […])) and 5 μL of CaCl2) (20 mM). Clotting was evaluated by monitoring changes in turbidity (A405 nm) every 30 seconds with the Spectramax microplate reader for 2 hours at 37° C. Clotting parameters including lag time were calculated and considered as the time point when an exponential increase in absorbance was first observed.

mice = mice (Shenoi); cited from earlier work

binding affinity to LC polyP (range in words) ([2]; ITC, FIG. 7) | Kd ([2]; P45, HEPES, 10 mM NaCl) [mM] | Kd ([2]; P700, HEPES buffer) [mM] | binding behaviour towards P45 in 31P NMR titration [3] | Molecule | log K, H2L + H ⇌ H3L [1] | log K, HL + H ⇌ H2L [1] | log K, L + H ⇌ HL [1] | log K, H3L + H ⇌ H4L [1] | UFH neutralization in heparinized plasma [4] | anticoagulant (overdose) behavior at higher doses [4] | LMWH neutralization (tinzaparin (LMWH)) | plasma clot time (lag time) compared to buffer control (human plasma clotting; MPI and PS 200 μg/mL, UHRA 75 μg/mL) | increase in clot time compared to buffer control (human plasma clotting; pooled plasma) [fold] | lethal dose (mice) [mg/kg]
millimolar range | 7 | 9 | weak interaction | CN(C)CCN(C)CCN(C)C [CBG I, N,NN′,N″,N″-pentamethyldiethylenetriamine] | 2.09 ± 0.02 | 8.41 ± 0.02 | 9.22 ± 0.02 |  |  |  |  |  |  | 
 |  |  |  | CN(C)CCN(CCN(C)C)CCN(C)C [Me6-TREN] | 7.44 | 8.68 | 9.50 | <1.0 |  |  |  |  |  | 
 |  |  |  | protamine sulfate |  |  |  |  | exhibits heparin neutralization at lower doses | clear anticoagulant behavior at higher doses | almost no neutralization activity on LMWH | performed significantly worse than MPI candidates | ~3 | 30
